# Experimental data taken from paper PMC8137473, “Preclinical trial of a MAP4K4 inhibitor to reduce infarct size in the pig: does cardioprotection in human stem cell-derived myocytes predict success in large mammals?” (Basic Research in Cardiology, 2021).
# Experiments:
# aqueous solubility = assay type: physicochemical
# Protocol: The chemical structures of DMX-5804 and DMX-10001 are compared in Fig. 1a, highlighting the phosphate moiety of the pro-drug. The aqueous solubility of DMX-10001 was > 400-fold greater than that of DMX-5804, allowing it to be infused i.v. without prohibitive fluid volumes. Cleavage to DMX-5804 was detectable in rats within 5 min and largely complete within 60 min (Fig. 1b). Data from i.v. infusion at a range of dose levels in the pig were simultaneously fit to a three-compartment pharmacokinetic model. Plasma protein binding in pig was used to determine free drug levels (not shown). Various dosing regimens were simulated to avoid an initial spike in DMX-5804 whilst rapidly achieving the efficacious drug levels seen in mice after oral gavage (Fig. 1c).
# [1] = test system: heart-type fatty acid binding protein (hFABP); assay: efficacy study: plasma hFABP release (ELISA); assay type: in vivo, swine
# Protocol: Next, an efficacy study was performed, in adherence to published guidelines for rigor and reproducibility, to evaluate the postulated benefit of DMX-10001 in a large-mammal model of MI. Briefly, 36 closed-chest swine (41 ± 2 kg) were subjected to regional ischemia by occluding the left anterior descending coronary artery (LAD) distal to the first diagonal branch for 60 min, followed by 24 h of reperfusion. Treatment with DMX-10001 (60 mg/kg/h for 0.5 h, followed by 17 mg/kg/h for 23.5 h) versus the vehicle was initiated 20 min prior to reperfusion and continued for 1 day. After 2 h of reperfusion, animals were allowed to recover from anesthesia. At 24 h of reperfusion, the infarct area (IA), area of no-reflow (NR), and area at ischemic risk (AAR) were determined. […] Heart-type fatty acid binding protein (hFABP) release was measured, as a biomarker that correlates with IS and NR in swine at least as well as cardiac troponin I [30]. […] Levels of DMX-10001 and DMX-5804 were determined by liquid chromatography–mass spectrometry (Pharmidex, London, UK). Porcine hFABP was analyzed as described: plasma samples were thawed on ice, diluted 10 × using the standard diluent provided with the kit, and analyzed by enzyme-linked immunosorbent assays according to the manufacturer’s instructions (Life Diagnostics, West Chester, PA). […]
structure (smiles),measurement,setting,value
COCCOc1ccc(-c2cn(-c3ccccc3)c3ncn(COP(=O)(O)O)c(=O)c23)cc1 [DMX-10001],aqueous solubility relative to that of DMX-5804,aqueous solubility,> 400 fold
same,plasma level of hFABP,[1]; 60 min of reperfusion,120 ± 19 ng/mL
same,plasma level of hFABP,[1]; baseline,8 ± 2 ng/mL
